Assays:
HsRAD51 = target: T1, HsRAD51 (Homo sapiens, UniProt Q06609); assay: Surface plasmon resonance (SPR) binding to immobilized RAD51; details: 25 °C, equilibrium analysis, ± SD, read-out: KD, equilibrium dissociation constant of direct binding to hRAD51
T1 sequence (Q06609 1-339): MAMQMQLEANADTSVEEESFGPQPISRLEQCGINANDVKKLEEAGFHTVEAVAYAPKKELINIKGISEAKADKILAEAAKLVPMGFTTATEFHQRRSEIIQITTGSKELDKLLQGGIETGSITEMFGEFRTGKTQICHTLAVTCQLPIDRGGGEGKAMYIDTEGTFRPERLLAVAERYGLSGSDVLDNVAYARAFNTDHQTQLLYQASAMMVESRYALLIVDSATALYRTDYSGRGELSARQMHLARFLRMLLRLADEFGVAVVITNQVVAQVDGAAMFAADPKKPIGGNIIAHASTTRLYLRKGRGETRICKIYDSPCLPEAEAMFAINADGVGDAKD
Method: The binding of RAD51i to RAD51 was examined using a ProteOn XPR36 SPR Protein Interaction Array System (Bio-Rad, Hercules, CA, USA) at 25 °C. ProteOn GLH sensor chips were preconditioned with two 10 s pulses of 50 mM NaOH, 100 mM HCl, and 0.5% SDS followed by the system equilibration with the running buffer (20 mM sodium phosphate, 150 mM NaCl, and 0.005% Tween 20, pH 7.4). The surface of a GLH sensorchip was subsequently activated with a 1:100 dilution of a 1:1 mixture of 0.2 M EDC and 0.05 M Sulfo-NHS. Purified HsRAD51 was diluted to 500 µg/mL in 10 mM sodium acetate, pH 5.5, and injected immediately after chip activation across the ligand flow channels at 30 µL/min for 5 min. Unreacted protein was washed out, and the excess of unreacted ester groups on the sensor surface was capped by an injection of 1 M ethanolamine-HCl, pH 8.0, at 5 µL/min for 5 min. A reference surface to correct for nonspecific binding was similarly created by immobilizing an IgG b12 anti-HIV-1 gp120 antibody (IgG b12 anti-HIV-1 gp120; was obtained through the NIH AIDS Reagent Program, Division of AIDS, NIAID, NIH: Anti-HIV-1 gp120 Monoclonal (IgG1 b12) from Drs. Dennis Burton and Carlos Barbas). Serial dilutions of the compounds were prepared in the running buffer supplemented with 8% DMSO and injected at a flow rate of 100 μL/min for a 1 min association phase, followed by a 5 min dissociation phase using the “one-shot kinetics” functionality of the ProteOn instrument. Data were analyzed with ProteOn Manager Software version 3.0 (Bio-Rad; Hercules, CA, USA). The responses from the reference flow cell were subtracted to account for the non-specific binding and injection artifacts. Experiments were repeated at least three times. The equilibrium dissociation constants (KD) for the interactions were calculated in ProteOn Manager Version 3.1.0.6 (Bio-Rad; Hercules, CA, USA) using the equilibrium analysis function.

MCF 10A cells [1] = assay: Cell cycle analysis (propidium iodide flow cytometry); format: cell-based, human; details: 24 h
Method: Exponentially growing MDA-MB-231 and MCF 10A cells were seeded into 6-well plates at a density of 1.5 × 10^5 cells/well in the presence of indicated concentrations of B02-iso or 0.01% DMSO (for control cells). After 24 h of incubation, cells were harvested, placed on ice, and washed once with cold PBS. Cells were counted with an automated cell counter (Bio-Rad; Hercules, CA, USA), and 1 × 10^5 cells from each sample were taken for further analysis. Cells were resuspended in PBS, and then cold, absolute ethanol was added dropwise to a cell suspension to reach a final concentration of 70%, followed by incubation on ice for 1 h. Cells were washed in PBS, resuspended in staining buffer (50 µg/mL propidium iodide, 100 µg/mL RNase A, 0.1% Triton X-100 in PBS) and incubated for 15 min in the dark at 37 °C. Cells were analyzed for DNA content by flow cytometry using the Guava easyCyte system (Millipore; Burlington, VT, USA) with the InCyte software (Millipore; Burlington, VT, USA).

MCF 10A cells [2] = assay: EdU cell proliferation assay, MCF 10A; format: cell-based, human; details: 24 h
Method: Exponentially growing MDA-MB-231 and MCF 10A cells were seeded into 6-well plates at a density of 1.5 × 10^5 cells/well in the presence of indicated concentrations of B02-iso or 0.1% DMSO (for control cells). After 24 h of incubation, cells were labeled with 10 µM Edu (Invitrogen; Waltham, […], USA) for 1 h or left unlabeled in the control. Cells were harvested and centrifuged at 500× g, 4 °C for 5 min, and cell pellets were washed with PBS supplemented with 1% BSA, spun down, and fixed with 4% methanol-free formaldehyde (Pierce) in PBS for 15 min. Cells were washed with PBS containing 1% BSA, centrifuged 500× g for 5 min. Cell pellets were resuspended in PBS containing 0.1% Triton X-100 and incubated for 15 min for permeabilization. Cells were spun down, resuspended in freshly prepared Edu click labeling solution (1 mM CuSO4, 1.25 µM Alexa Fluor 488 Azide (Invitrogen; Waltham, […], USA), 50 mM ascorbic acid in PBS) and incubated for 30 min in the dark. Cells were washed twice with PBS containing 0.1% Triton X-100, resuspended in the same buffer, and analyzed for Edu incorporation by flow cytometry using the Guava easyCyte system (Millipore; Burlington, VT, USA) with the InCyte software (Millipore; Burlington, VT, USA).

[3] = tested on: HR in human U-2 OS IndDR-GFP cells; assay: Inducible I-SceI DR-GFP assay (IndDR-GFP), inhibition of HR; format: cell-based
Method: Exponentially growing U-2 OS IndDR-GFP cells were seeded at a density of 2 × 10^5 cells/well into 6-well plates with DMEM media containing 80 µg/mL G418 and indicated concentrations of RAD51i(s). For I-SceI induced samples, the media were supplemented with 0.5 µM Shield1 (Clontech, Mountain View, CA, USA) with 100 nM triamcinolone acetonide (Sigma, St. Louis, MO, USA). After 24 h of incubation, the media were removed, cells were washed with the DMEM, and the incubation continued for 48 h in DMEM containing 100 units/mL penicillin, 100 µg/mL streptomycin, and 80 µg/mL G418. Then, cells were trypsinized, trypsin solution was neutralized with an equal volume of media, and 10% formaldehyde solution in PBS was added for fixation to reach a final concentration of formaldehyde of 3.3%. The yield of GFP-positive cells indicative of HR activity was measured by flow cytometry with the Guava easyCyte system, and the data were analyzed with the InCyte program (Millipore; Burlington, VT, USA).

Kd (HsRAD51): 14.6 ± 6.2 µM
IC50 ([3]; Homo sapiens, U2OS, U-2 OS IndDR-GFP cells, 24 h with compound, ± SD, read-out: IC50, efficiency of HR inhibition in IndDR-GFP assay): 4.3 ± 0.75 µM
Structure (SMILES): O=c1nc(/C=C/c2cccnc2)n(Cc2ccccc2)c2ccccc12 [B02-iso]
Cell cycle effect (MCF 10A cells [1]): prominent G1 arrest
Fraction of DNA-replicating cells (EdU) (MCF 10A cells [2]; 4 µM): dropped approximately two-fold
Fraction of DNA-replicating cells (EdU) (MCF 10A cells [2]; 8 µM): abolished almost entirely
Improvement of potency (HR inhibition) versus B02 ([3]; IndDR-GFP IC50 of B02-iso vs B02): approximately four-fold
